Like-named read-outs stand apart in the source and are kept apart here.
Legend:
FGFR2 (h) = FGFR2 (h) (Homo sapiens, UniProt P21802); experiment: FGFR2 (enzymatic assay), TR-FRET; assay type: biochemical; conditions: 60 min, pIC50 = -log IC50 (M), average if tested multiple times
FGFR3 (h) = FGFR3 (h) (Homo sapiens, UniProt P22607); experiment: FGFR3 (enzymatic assay), TR-FRET; assay type: biochemical; conditions: 60 min, pIC50 = -log IC50 (M), average if tested multiple times
FGFR4 (h) = FGFR4 (h) (Homo sapiens, UniProt P22455); experiment: FGFR4 (enzymatic assay), TR-FRET; assay type: biochemical; conditions: FGFR 4 pIC50, 5 μM ATP, 60 min; pIC50 = -log IC50 (M); average if tested multiple times
KDR (h) = KDR (h) (Homo sapiens, UniProt P35968); experiment: KDR (VEGFR2) (enzymatic assay), TR-FRET; assay type: biochemical; conditions: 120 min, pIC50 = -log IC50 (M), average if tested multiple times
Method: KDR (VEGFR2) (Enzymatic Assay)
In a final reaction volume of 30 μL, KDR (h) (150 ng/ml) was incubated with 50 mM HEPES pH 7.5, 6 mM MnCl2, 1 mM DTT, 0.1 mM Na3VO4, 0.01% Triton-X-100, 500 nM Btn-Flt3 and 3 μM ATP in the presence of compound (1% DMSO final). After incubation for 120 minutes at room temperature the reaction was stopped with 2.27 nM EU-anti P-Tyr, 7 mM EDTA, 31.25 nM SA-XL-665 and 0.02% BSA which was present for 60 minutes at room temperature. Time-Resolved Fluorescence Resonance Energy Transfer (TR-FRET) signal (ex340 nm. Em 620 nm, em 655 nm) was measured afterwards and results are expressed in RFU (Relative Fluorescence Units). In this assay, the inhibitory effect of different compound concentrations (range 10 μM to 0.1 nM) was determined and used to calculate an IC50 (M) and pIC50 (−log IC50) value.

FGFR1 (h) = FGFR1 (h) (Homo sapiens, UniProt P11362); experiment: FGFR1 (enzymatic assay), TR-FRET; assay type: biochemical; conditions: FGFR 1 pIC50, 5 μM ATP, 60 min; pIC50 = -log IC50 (M); average if tested multiple times
[1] = target: T1, Ba/F3-FGFR1-transfected cells (Homo sapiens, UniProt P11362, cells depend on it, form not given); experiment: Ba/F3-FGFR1 (minus IL3 or plus IL3) cellular proliferation assay, Alamar Blue; assay type: cell-based; conditions: minus IL3, 24 hours
T1 construct: other: minus IL3; 24 hours, Alamar Blue
Method: Ba/F3-FGFR1 (Minus IL3 or Plus IL3) (Cellular Proliferation Assay)
(§1) In a 384 well plate, 100 nl of compound dilution in DMSO was sprayed before adding 50 μl cell culture medium (phenol red free RPMI-1640, 10% FBS, 2 mM L-Glutamine and 50 μg/ml Gentamycin) containing 20000 cells per well of Ba/F3-FGFR1-transfected cells. Cells were put in an incubator at 37° C. and 5% CO2. After 24 hours, 10 μl of Alamar Blue solution (0.5 mM K3Fe(CN)6, 0.5 mM K4Fe(CN)6, 0.15 mM Resazurin and 100 mM Phosphate Buffer) was added to the wells, incubated for 4 hours at 37° C. and 5% CO2 before RFU's (Relative Fluorescence Units) (ex. 540 nm., em. 590 nm.) were measured in a fluorescence plate reader.
(§2) In this assay, the inhibitory effect of different compound concentrations (range 10 μM to 0.1 nM) was determined and used to calculate an IC50 (M) and pIC50 (−log IC50) value. As a counterscreen the same experiment was performed in the presence of 10 ng/ml murine IL3.

[2] = target: T2, Ba/F3-FGFR3-transfected cells (Homo sapiens, UniProt P22607, cells depend on it, form not given); experiment: Ba/F3-FGFR3 (minus IL3 or plus IL3) cellular proliferation assay, Alamar Blue; assay type: cell-based; conditions: minus IL3; 24 hours, Alamar Blue
T2 construct: BAF3-FGFR3 (MIN IL3 Alamar Blue- pIC50); other: minus IL3; 24 hours, Alamar Blue
Method: (§3) Ba/F3-FGFR3 (Minus IL3 or Plus IL3) (Cellular Proliferation Assay)
as §1, with “Ba/F3-FGFR3-transfected” for “Ba/F3-FGFR1-transfected”
as §2

[3] = target: T3, Ba/F3-KDR-transfected cells (Homo sapiens, UniProt P35968, cells depend on it, form not given); experiment: Ba/F3-KDR (minus IL3 or plus IL3) cellular proliferation assay, Alamar Blue; assay type: cell-based; conditions: minus IL3; 24 hours, Alamar Blue
T3 construct: BAF3-KDR (MIN IL3 Alamar Blue pIC50); other: minus IL3; 24 hours, Alamar Blue
Method: (§4) Ba/F3-KDR (Minus IL3 or Plus IL3) (Cellular Proliferation Assay)
as §1, with “Ba/F3-KDR-transfected” for “Ba/F3-FGFR1-transfected”
as §2

[4] = target: Ba/F3-FGFR4-transfected cells (Homo sapiens, UniProt P22455); experiment: Ba/F3-FGFR4 cellular proliferation assay, Alamar Blue; assay type: cell-based; conditions: 24 hours
Method: Ba/F3-FGFR4 (Cellular Proliferation Assay)
as §1, with “Ba/F3-FGFR4-transfected” for “Ba/F3-FGFR1-transfected”
In this assay, the inhibitory effect of different compound concentrations (range 10 μM to 0.1 nM) was determined and used to calculate an IC50 (M) and pIC50 (−log IC50) value.

[5] = system: Ba/F3-FGFR3-transfected cells; experiment: Ba/F3-FGFR3 (minus IL3 or plus IL3) cellular proliferation assay, Alamar Blue; assay type: cell-based; conditions: plus IL3 (10 ng/ml murine IL3, counterscreen); 24 hours, Alamar Blue; read-out: BAF3-FGFR3 (PLUS IL3 Alamar Blue pIC50) (converted)
Method: as §3
as §1, with “Ba/F3-FGFR3-transfected” for “Ba/F3-FGFR1-transfected”
as §2

[6] = system: Ba/F3-KDR-transfected cells; experiment: Ba/F3-KDR (minus IL3 or plus IL3) cellular proliferation assay, Alamar Blue; assay type: cell-based; conditions: plus IL3 (10 ng/ml murine IL3, counterscreen); 24 hours, Alamar Blue; read-out: BAF3-KDR (PLUS IL3 Alamar Blue pIC50) (converted)
Method: as §4
as §1, with “Ba/F3-KDR-transfected” for “Ba/F3-FGFR1-transfected”
as §2

[7] = 0.4 μM ATP, read-out: FGFR 2 pIC50 (converted)
[8] = 25 μM ATP, read-out: hFGFR 3 pIC50 (converted)
[9] = 3 μM ATP, read-out: VEGFR KDR pIC50 (converted)

Chain of FGFR3 (h) (P22607 23-806): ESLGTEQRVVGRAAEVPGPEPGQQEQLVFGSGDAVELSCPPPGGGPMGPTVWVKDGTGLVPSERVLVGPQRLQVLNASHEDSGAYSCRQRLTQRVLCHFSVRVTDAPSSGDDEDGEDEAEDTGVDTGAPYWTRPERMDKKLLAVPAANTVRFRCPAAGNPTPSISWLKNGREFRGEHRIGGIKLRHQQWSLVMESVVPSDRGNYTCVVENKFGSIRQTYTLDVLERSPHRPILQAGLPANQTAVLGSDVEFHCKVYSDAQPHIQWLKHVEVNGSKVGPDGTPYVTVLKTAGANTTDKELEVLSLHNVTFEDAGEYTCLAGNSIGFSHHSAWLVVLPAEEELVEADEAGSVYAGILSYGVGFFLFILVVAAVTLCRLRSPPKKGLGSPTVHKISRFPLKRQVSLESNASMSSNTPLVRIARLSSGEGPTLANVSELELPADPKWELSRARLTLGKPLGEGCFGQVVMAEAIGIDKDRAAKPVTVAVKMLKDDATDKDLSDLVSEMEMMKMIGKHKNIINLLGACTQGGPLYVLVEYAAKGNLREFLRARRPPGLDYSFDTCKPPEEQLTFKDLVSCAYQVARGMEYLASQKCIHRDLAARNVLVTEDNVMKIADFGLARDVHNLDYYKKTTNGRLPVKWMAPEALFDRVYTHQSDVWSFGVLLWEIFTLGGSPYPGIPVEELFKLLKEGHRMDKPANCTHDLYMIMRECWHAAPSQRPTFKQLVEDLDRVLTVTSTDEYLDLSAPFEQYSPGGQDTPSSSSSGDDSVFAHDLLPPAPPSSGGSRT
Chain of FGFR1 (h) (P11362 22-822): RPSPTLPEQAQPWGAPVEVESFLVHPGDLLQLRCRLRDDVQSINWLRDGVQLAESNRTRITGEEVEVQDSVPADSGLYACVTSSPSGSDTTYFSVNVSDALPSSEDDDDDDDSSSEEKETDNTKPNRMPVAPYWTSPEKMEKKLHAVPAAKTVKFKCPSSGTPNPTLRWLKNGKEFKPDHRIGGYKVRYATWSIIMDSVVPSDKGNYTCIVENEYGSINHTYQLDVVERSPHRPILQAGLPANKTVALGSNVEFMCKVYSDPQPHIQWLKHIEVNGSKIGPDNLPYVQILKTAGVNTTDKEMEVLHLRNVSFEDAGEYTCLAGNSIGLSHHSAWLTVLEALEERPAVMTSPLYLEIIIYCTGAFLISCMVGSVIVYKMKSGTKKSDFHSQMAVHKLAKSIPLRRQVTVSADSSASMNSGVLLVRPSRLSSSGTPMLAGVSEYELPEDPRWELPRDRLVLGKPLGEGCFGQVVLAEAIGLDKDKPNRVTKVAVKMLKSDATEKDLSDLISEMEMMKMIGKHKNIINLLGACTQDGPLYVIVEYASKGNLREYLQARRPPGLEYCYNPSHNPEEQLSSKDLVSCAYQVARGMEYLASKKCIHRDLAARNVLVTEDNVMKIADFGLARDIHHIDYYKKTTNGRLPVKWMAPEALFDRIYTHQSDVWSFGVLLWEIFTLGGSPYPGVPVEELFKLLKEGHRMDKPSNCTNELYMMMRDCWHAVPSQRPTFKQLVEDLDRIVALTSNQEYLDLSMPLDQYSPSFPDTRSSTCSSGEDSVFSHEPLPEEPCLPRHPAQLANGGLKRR
T1 sequence (P11362 whole entry, change not shown): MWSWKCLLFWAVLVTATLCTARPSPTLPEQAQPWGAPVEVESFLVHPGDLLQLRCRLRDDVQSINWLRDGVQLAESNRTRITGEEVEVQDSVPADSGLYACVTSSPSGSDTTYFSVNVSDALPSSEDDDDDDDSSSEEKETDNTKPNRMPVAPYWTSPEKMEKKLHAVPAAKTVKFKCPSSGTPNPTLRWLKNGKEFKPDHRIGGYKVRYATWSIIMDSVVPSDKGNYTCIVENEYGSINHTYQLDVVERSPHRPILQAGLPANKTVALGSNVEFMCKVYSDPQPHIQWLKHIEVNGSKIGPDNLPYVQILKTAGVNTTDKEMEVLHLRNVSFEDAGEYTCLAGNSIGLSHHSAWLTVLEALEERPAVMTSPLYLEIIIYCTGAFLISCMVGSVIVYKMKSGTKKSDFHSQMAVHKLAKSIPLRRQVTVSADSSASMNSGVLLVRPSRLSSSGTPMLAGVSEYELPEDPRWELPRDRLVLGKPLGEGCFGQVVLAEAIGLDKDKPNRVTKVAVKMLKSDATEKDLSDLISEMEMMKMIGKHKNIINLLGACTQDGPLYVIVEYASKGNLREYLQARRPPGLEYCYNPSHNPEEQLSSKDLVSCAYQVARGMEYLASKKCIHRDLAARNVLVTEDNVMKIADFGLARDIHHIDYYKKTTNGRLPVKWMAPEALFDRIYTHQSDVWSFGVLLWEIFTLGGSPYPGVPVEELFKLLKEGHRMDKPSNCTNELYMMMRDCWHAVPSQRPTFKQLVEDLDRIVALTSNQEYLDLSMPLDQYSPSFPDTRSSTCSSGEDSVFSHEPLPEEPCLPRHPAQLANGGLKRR
Chain of FGFR2 (h) (P21802 22-821): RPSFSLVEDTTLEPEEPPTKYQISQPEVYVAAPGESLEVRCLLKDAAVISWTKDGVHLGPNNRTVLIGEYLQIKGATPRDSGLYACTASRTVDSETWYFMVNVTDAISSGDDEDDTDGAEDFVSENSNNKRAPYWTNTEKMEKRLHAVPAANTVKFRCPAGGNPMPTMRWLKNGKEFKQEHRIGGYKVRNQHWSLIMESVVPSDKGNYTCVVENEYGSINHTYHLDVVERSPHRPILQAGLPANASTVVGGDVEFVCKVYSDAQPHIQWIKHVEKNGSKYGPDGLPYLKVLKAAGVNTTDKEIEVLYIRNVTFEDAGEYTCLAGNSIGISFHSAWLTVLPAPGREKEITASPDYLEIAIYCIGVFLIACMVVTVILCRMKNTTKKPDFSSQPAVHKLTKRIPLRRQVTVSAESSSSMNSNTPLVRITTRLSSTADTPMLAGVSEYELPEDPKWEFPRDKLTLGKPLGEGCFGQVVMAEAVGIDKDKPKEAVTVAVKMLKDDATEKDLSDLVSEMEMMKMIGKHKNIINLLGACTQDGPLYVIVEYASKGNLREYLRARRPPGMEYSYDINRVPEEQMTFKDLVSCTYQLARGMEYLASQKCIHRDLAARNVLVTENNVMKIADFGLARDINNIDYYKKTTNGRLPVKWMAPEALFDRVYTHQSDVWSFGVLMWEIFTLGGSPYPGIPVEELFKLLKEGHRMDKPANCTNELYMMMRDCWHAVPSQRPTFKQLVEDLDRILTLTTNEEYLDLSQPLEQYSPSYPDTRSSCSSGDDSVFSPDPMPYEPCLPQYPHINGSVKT
Chain of KDR (h) (P35968 20-1356): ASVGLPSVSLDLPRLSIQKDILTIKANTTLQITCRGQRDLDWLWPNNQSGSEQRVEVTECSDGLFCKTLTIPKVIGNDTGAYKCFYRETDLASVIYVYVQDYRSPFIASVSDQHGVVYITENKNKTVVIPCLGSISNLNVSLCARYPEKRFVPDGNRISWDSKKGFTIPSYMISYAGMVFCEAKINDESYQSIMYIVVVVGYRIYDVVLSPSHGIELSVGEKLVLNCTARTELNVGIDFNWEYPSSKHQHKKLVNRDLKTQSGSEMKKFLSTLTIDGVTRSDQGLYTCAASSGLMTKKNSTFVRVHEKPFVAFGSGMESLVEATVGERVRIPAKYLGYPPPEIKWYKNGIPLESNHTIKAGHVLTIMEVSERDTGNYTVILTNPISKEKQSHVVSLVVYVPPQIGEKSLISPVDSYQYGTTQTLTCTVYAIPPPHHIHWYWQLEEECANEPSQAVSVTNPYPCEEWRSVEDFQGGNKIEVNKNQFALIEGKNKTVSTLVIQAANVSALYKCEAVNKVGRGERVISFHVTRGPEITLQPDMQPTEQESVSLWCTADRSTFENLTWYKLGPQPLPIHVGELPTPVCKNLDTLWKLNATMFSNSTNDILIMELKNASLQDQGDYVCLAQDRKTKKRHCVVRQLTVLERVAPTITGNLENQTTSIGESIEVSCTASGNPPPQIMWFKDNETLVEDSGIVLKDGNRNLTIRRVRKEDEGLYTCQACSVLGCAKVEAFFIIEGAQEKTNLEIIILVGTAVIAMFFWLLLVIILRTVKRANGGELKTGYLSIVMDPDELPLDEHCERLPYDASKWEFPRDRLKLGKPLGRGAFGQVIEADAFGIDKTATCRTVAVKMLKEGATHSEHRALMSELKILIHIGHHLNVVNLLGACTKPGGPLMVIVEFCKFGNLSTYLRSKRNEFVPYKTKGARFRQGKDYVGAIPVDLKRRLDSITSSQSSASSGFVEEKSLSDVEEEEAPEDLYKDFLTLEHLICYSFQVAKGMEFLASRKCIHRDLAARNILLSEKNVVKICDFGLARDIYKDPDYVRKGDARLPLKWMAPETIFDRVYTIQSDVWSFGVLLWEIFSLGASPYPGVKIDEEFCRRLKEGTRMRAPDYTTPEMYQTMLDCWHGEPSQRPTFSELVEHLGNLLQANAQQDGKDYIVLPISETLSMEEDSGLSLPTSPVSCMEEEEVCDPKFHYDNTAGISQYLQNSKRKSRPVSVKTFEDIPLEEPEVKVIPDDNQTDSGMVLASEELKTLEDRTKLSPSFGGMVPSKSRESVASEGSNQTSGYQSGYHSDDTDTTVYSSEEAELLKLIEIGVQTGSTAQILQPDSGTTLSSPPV

Compound	IC50 (FGFR2 (h); [7])	IC50 (FGFR3 (h); [8])	IC50 (FGFR4 (h))	IC50 (KDR (h); [9])	IC50 (FGFR1 (h))	BAF3-FGFR1 (MIN IL3 pIC50) [1]	BAF3-FGFR3 (MIN IL3 Alamar Blue- pIC50) [2]	BAF3-KDR (MIN IL3 Alamar Blue pIC50) [3]	BAF3-FGFR 4 (pIC50) [4]	IC50 [5]	IC50 [6]	IC50 (FGFR2 (h); FGFR 2 pIC50, 0.4 μM ATP)	IC50 (FGFR3 (h); hFGFR 3 pIC50, 25 μM ATP)	IC50 (KDR (h); VEGFR KDR pIC50, 3 μM ATP)
COc1cc(OC)cc(N(CCNC(C)C)c2ccc3ncc(-c4cnn(CCO)c4)cc3c2)c1 [Compound 13]	6.61e-09 M	4.9e-09 M	8.71e-09 M	1.29e-07 M	2.51e-09 M	7.23	7	5.57	6.81	–	–	–	–	–
COc1cc(OC)cc(/C(=C\C#N)c2ccc3ncc(-c4cnn(C)c4)cc3c2)c1 [Compound 30]	3.47e-08 M	2.19e-08 M	3.02e-07 M	3.31e-07 M	–	6.03	5.89	5.55	5.25	–	–	–	–	–
COc1cc(OC)cc(C(=O)c2ccc3ncc(-c4cnn(C)c4)cc3c2)c1 [Compound 31]	3.09e-08 M	1.86e-08 M	2.57e-07 M	1.58e-07 M	–	5.65	5.46	<5	5.12	–	–	–	–	–
COc1cc(OC)cc(C(CCNC(C)C)c2ccc3ncc(-c4cnn(C)c4)cc3c2)c1 (centres unmarked) [Compound 41]	2.04e-08 M	3.89e-08 M	1.66e-07 M	> 1e-06 M	–	6.43	6.30	<5	5.78	> 10000 nM	> 10000 nM	–	–	–
COc1cc(OC)cc(N(Cc2ncc[nH]2)c2ccc3ncc(C4=CCNCC4)cc3c2)c1 [Compound 46]	–	–	1.7e-08 M	–	6.31e-09 M	5.89	5.68	<5	5.28	–	–	3.63e-09 M	2.45e-09 M	1.02e-06 M
COc1cc(OC)cc(N(Cc2ncc[nH]2)c2ccc3ncc(N4CCOCC4)cc3c2)c1 [Compound 55]	2e-08 M	2.04e-08 M	1.32e-07 M	> 1e-06 M	9.12e-08 M	5.64	5.77	<5	5.37	–	–	–	–	–
COc1cc(OC)cc(N(Cc2ncc[nH]2)c2ccc3ncc(-c4ccn(C)c4)cc3c2)c1 [Compound 62]	2.09e-09 M	1.45e-09 M	3.31e-09 M	2.57e-07 M	–	6.63	6.75	<5	6.24	–	–	–	–	–

Continued, in another order:

IC50 (FGFR2 (h); [7])	IC50 (FGFR3 (h); [8])	IC50 (FGFR4 (h))	IC50 (KDR (h); [9])	IC50 (FGFR1 (h))	BAF3-FGFR1 (MIN IL3 pIC50) [1]	BAF3-FGFR3 (MIN IL3 Alamar Blue- pIC50) [2]	BAF3-KDR (MIN IL3 Alamar Blue pIC50) [3]	BAF3-FGFR 4 (pIC50) [4]	Compound	IC50 [5]	IC50 [6]	IC50 (FGFR2 (h); FGFR 2 pIC50, 0.4 μM ATP)	IC50 (FGFR3 (h); hFGFR 3 pIC50, 25 μM ATP)	IC50 (KDR (h); VEGFR KDR pIC50, 3 μM ATP)
> 1e-06 M	> 1e-06 M	> 1e-06 M	> 1e-06 M	–	–	–	–	–	COc1cc(OC)cc(C(CCO)c2ccc3ncc(-c4cnn(C)c4)cc3c2)c1 (single isomer, unassigned) [Compound 36]	–	–	–	–	–
3.02e-07 M	2.19e-07 M	–	> 1e-06 M	1.86e-07 M	<5	5.08	<5	<5	COc1cc(OC)cc(C(CC(N)=O)c2ccc3ncc(-c4cnn(C)c4)cc3c2)c1 (centres unmarked) [Compound 40]	> 10000 nM	> 10000 nM	–	–	–
3.24e-09 M	1.7e-09 M	~1.35e-08 M	5.25e-08 M	–	5.65	6.61	5.18	6.00	COc1cc(OC)cc(N(CC2CCC(=O)N2)c2ccc3ncc(-c4cnn(C)c4)cc3c2)c1 (centres unmarked) [Compound 44]	> 10000 nM	> 10000 nM	–	–	–
1.7e-07 M	4.17e-07 M	8.32e-07 M	> 1e-06 M	2.95e-07 M	<5	<5	<5	<5	COc1cc(OC)cc(N(Cc2ncc[nH]2)c2ccc3ncc(C4CCNCC4)cc3c2)c1 [Compound 48a]	> 10000 nM	> 10000 nM	–	–	–
3.98e-09 M	7.94e-09 M	1.38e-08 M	1.7e-07 M	2.75e-09 M	6.13	5.82	5.15	5.87	COc1cc(OC)cc(N(CCNC(C)C)c2ccc3ncc(-c4ccccc4)cc3c2)c1 [Compound 51]	> 10000 nM	~6030 nM	–	–	–

From patent US10039759B2, “Quinolines as FGFR kinase modulators” (priority 2011, dated 2018)
